Test results published in US20140193827A1 (TEVA PHARMACEUTICAL INDUSTRIES, LTD., priority 2013, published 2014).

Test system: GA-primed murine splenocytes
Test: ANOVA-based pattern identification method
Format: cell-based, mouse
Text: We sought to identify probes matching specific patterns of expression across experimental conditions using a technique that referred to as the ANOVA-based Pattern Identification Method.
To carry out the analysis in a general manner, we computed the 6 p-values required to do pairwise comparisons of all 4 conditions for all probes using the ANOVA1 function in MATLAB. We then identified sets of probes matching the desired pattern. In the example above, probes were identified as being only affected by PG if their 6 pairwise comparison pvalues matched the following pattern (pGA-PG<0.05, pPG-reference standard<0.05, pPG-Medium<0.05, pGAMedium>0.05, pGA-reference standard>0.05, preference standard-Medium>0.05).

In the case of glatiramer acetate [GA], the FYB expression level (UP IN GA AND REF ONLY) is reported as 8.25, the GNL3L expression level (UP IN GA AND REF ONLY) is reported as 7.689 and the GPC3 expression level (UP IN GA AND REF ONLY) is reported as 5.696. It also gave a GPI1 expression level (UP IN GA AND REF ONLY) of 11.7829, a GREM2 expression level (UP IN GA AND REF ONLY) of 6.036 and a GTF3C5 expression level (UP IN GA AND REF ONLY) of 5.928. The GTL7 expression level (UP IN GA AND REF ONLY) was 7.434, the H2-T23 expression level (UP IN GA AND REF ONLY) was 10.78 and the H2AFZ expression level (UP IN GA AND REF ONLY) was 11.93. The HEATR3 expression level (UP IN GA AND REF ONLY) was 5.853, the HIST1H2AG expression level (UP IN GA AND REF ONLY) was 10.07 and the HIST1H2AK expression level (UP IN GA AND REF ONLY) was 12.78. The HNRNPK expression level (UP IN GA AND REF ONLY) was 10.05, the IL1F10 expression level (UP IN GA AND REF ONLY) was 6.065 and the INPP4B expression level (UP IN GA AND REF ONLY) was 6.314. For the same substance, the KLRA1 expression level (UP IN GA AND REF ONLY) was 5.834, the KRT25 expression level (UP IN GA AND REF ONLY) was 5.8 and the LOC235279 expression level (UP IN GA AND REF ONLY) was 5.818. For the same substance, the LOC244219 expression level (UP IN GA AND REF ONLY) was 5.958, the LOC331243 expression level (UP IN GA AND REF ONLY) was 5.641 and the LOC380707 expression level (UP IN GA AND REF ONLY) was 10.02. It also gave an LOC381093 expression level (UP IN GA AND REF ONLY) of 5.885, an LOC383306 expression level (UP IN GA AND REF ONLY) of 5.921 and an LOC383433 expression level (UP IN GA AND REF ONLY) of 5.667. The LOC383706 expression level (UP IN GA AND REF ONLY) was 8.36, the LOC384585 expression level (UP IN GA AND REF ONLY) was 5.764 and the LOC384990 expression level (UP IN GA AND REF ONLY) was 5.909. The LOC386161 expression level (UP IN GA AND REF ONLY) was 5.652, the LOC628101 expression level (UP IN GA AND REF ONLY) was 6.566 and the LOC667005 expression level (UP IN GA AND REF ONLY) was 7.02. For the same substance, the LOC100040244 expression level (UP IN GA AND REF ONLY) was 7.257, the LOC100040854 expression level (UP IN GA AND REF ONLY) was 5.619 and the LOC100041450 expression level (UP IN GA AND REF ONLY) was 6.953. It also gave an LOC100043391 expression level (UP IN GA AND REF ONLY) of 14.29, an LOC100044190 expression level (UP IN GA AND REF ONLY) of 10.67 and an LOC100046320 expression level (UP IN GA AND REF ONLY) of 7.704. The LOC100047009 expression level (UP IN GA AND REF ONLY) was 6.027, the LOC100048816 expression level (UP IN GA AND REF ONLY) was 5.928 and the LSG1 expression level (UP IN GA AND REF ONLY) was 7.278. It also gave an MAD2L1BP expression level (UP IN GA AND REF ONLY) of 9.971, an MIER2 expression level (UP IN GA AND REF ONLY) of 5.885 and an MX2 expression level (UP IN GA AND REF ONLY) of 8.083. For the same substance, the MYNN expression level (UP IN GA AND REF ONLY) was 5.819, the NCDN expression level (UP IN GA AND REF ONLY) was 5.87 and the NEO1 expression level (UP IN GA AND REF ONLY) was 6.159. The NPC2 expression level (UP IN GA AND REF ONLY) was 9.575, the NUDCD2 expression level (UP IN GA AND REF ONLY) was 7.102 and the OLFR701 expression level (UP IN GA AND REF ONLY) was 5.738. For the same substance, the OS9 expression level (UP IN GA AND REF ONLY) was 9.621, the OTTMUSG00000005523 expression level (UP IN GA AND REF ONLY) was 6.96 and the PARP14 expression level (UP IN GA AND REF ONLY) was 11.13. It also gave a PCDHGC5 expression level (UP IN GA AND REF ONLY) of 6.075, a PDIA2 expression level (UP IN GA AND REF ONLY) of 5.846 and a PDLIM1 expression level (UP IN GA AND REF ONLY) of 9.528. It also gave a PIBF1 expression level (UP IN GA AND REF ONLY) of 6.957, a PIGN expression level (UP IN GA AND REF ONLY) of 5.83 and a PJA1 expression level (UP IN GA AND REF ONLY) of 6.736. It also gave a PK3 expression level (UP IN GA AND REF ONLY) of 6.316, a PLEKHF2 expression level (UP IN GA AND REF ONLY) of 8.247 and a PLXNC1 expression level (UP IN GA AND REF ONLY) of 6.506. It also gave a PPP1CB expression level (UP IN GA AND REF ONLY) of 7.717, a PPP2R5C expression level (UP IN GA AND REF ONLY) of 10.04 and a PSEN2 expression level (UP IN GA AND REF ONLY) of 5.995. The PTPN1 expression level (UP IN GA AND REF ONLY) was 9.292, the PUM2 expression level (UP IN GA AND REF ONLY) was 8.717 and the RAB6 expression level (UP IN GA AND REF ONLY) was 7.499. The RAB33A expression level (UP IN GA AND REF ONLY) was 6.093, the RBM14 expression level (UP IN GA AND REF ONLY) was 6.157 and the RN185 expression level (UP IN GA AND REF ONLY) was 9.959. For the same substance, the RNF8 expression level (UP IN GA AND REF ONLY) was 6.852, the RNF19A expression level (UP IN GA AND REF ONLY) was 5.962 and the RNGTT expression level (UP IN GA AND REF ONLY) was 6.302. The RPL37 expression level (UP IN GA AND REF ONLY) was 5.765, the SAMHD1 expression level (UP IN GA AND REF ONLY) was 12.05 and the SCL0002368.1_75 expression level (UP IN GA AND REF ONLY) was 9.053. It also gave an SELP expression level (UP IN GA AND REF ONLY) of 6.569, an SLC30A8 expression level (UP IN GA AND REF ONLY) of 5.652 and an SLCO3A1 expression level (UP IN GA AND REF ONLY) of 6.151. It also gave an SLFN9 expression level (UP IN GA AND REF ONLY) of 5.598, an SPNB2 expression level (UP IN GA AND REF ONLY) of 5.753 and an STAT3 expression level (UP IN GA AND REF ONLY) of 11.07. For the same substance, the STIL expression level (UP IN GA AND REF ONLY) was 5.727, the TELO2 expression level (UP IN GA AND REF ONLY) was 5.873 and the TMPO expression level (UP IN GA AND REF ONLY) was 8.63. It also gave a TNP2 expression level (UP IN GA AND REF ONLY) of 5.959, a TOP2A expression level (UP IN GA AND REF ONLY) of 7.085 and a TOR1A expression level (UP IN GA AND REF ONLY) of 7.512. For the same substance, the TPM4 expression level (UP IN GA AND REF ONLY) was 7.481, the TRAPPC2 expression level (UP IN GA AND REF ONLY) was 5.833 and the TRMT2A expression level (UP IN GA AND REF ONLY) was 6.694. The TSPAN14 expression level (UP IN GA AND REF ONLY) was 9.848, the TTLL4 expression level (UP IN GA AND REF ONLY) was 5.973 and the UBE2Z expression level (UP IN GA AND REF ONLY) was 6.169. The USF1 expression level (UP IN GA AND REF ONLY) was 6.915, the V1RD18 expression level (UP IN GA AND REF ONLY) was 5.691 and the VMN2R81 expression level (UP IN GA AND REF ONLY) was 5.992. It also gave a VMN2R89 expression level (UP IN GA AND REF ONLY) of 6.242, a VPS37B expression level (UP IN GA AND REF ONLY) of 10.56 and a WAPAL expression level (UP IN GA AND REF ONLY) of 6.423. It also gave a WDR45L expression level (UP IN GA AND REF ONLY) of 7.365, a ZDHHC21 expression level (UP IN GA AND REF ONLY) of 8.562 and a ZFP277 expression level (UP IN GA AND REF ONLY) of 9.951. For the same substance, the ZFP281 expression level (UP IN GA AND REF ONLY) was 8.974, the ZFP800 expression level (UP IN GA AND REF ONLY) was 6.783 and the ZNF24 expression level (UP IN GA AND REF ONLY) was 6.171. For the same substance, the ZWILCH expression level (UP IN GA AND REF ONLY) was 6.29, the ZZZ3 expression level (UP IN GA AND REF ONLY) was 6.181 and the 5YNGR1 expression (UP IN generic ONLY) was 5.954. It also gave a 1200003C05RIK expression (UP IN generic ONLY) of 9.103, a 1200011M11RIK expression (UP IN generic ONLY) of 6.322 and a 1700021P22RIK expression (UP IN generic ONLY) of 6.037. It also gave a 1700029G01RIK expression (UP IN generic ONLY) of 6.738, a 1700063H04RIK expression (UP IN generic ONLY) of 5.82 and a 2210010L05RIK expression (UP IN generic ONLY) of 5.598. For the same substance, the 2310046A06RIK expression (UP IN generic ONLY) was 5.634, the 2310051M13RIK expression (UP IN generic ONLY) was 5.609 and the 2600005J22RIK expression (UP IN generic ONLY) was 5.732. The 2610209A20RIK expression (UP IN generic ONLY) was 6.008, the 2810046M22RIK expression (UP IN generic ONLY) was 5.995 and the 2810453I06RIK expression (UP IN generic ONLY) was 8.506. It also gave a 2900090M10RIK expression (UP IN generic ONLY) of 5.695, a 3110070M22RIK expression (UP IN generic ONLY) of 6.16 and a 4930430K04RIK expression (UP IN generic ONLY) of 5.499. For the same substance, the 4930432K21RIK expression (UP IN generic ONLY) was 6.593, the 4930471I01RIK expression (UP IN generic ONLY) was 5.854 and the 4930481A15RIK expression (UP IN generic ONLY) was 5.879. For the same substance, the 4930543G11RIK expression (UP IN generic ONLY) was 5.775.
